{"source": "PubChem BioAssay (NCI)", "assay_in_all_cases": "inhibition of tumour cell growth, NCI panel, 48 h", "key": {"[1]": {"system": "NCI-H23 lung"}, "[2]": {"system": "COLO 205 colon"}, "[3]": {"system": "SN12C renal"}, "[4]": {"system": "OVCAR-4 ovarian"}, "[5]": {"system": "HCT-116 colon"}, "[6]": {"system": "EKVX NSCLC"}, "[7]": {"system": "DU-145 prostate"}, "[8]": {"system": "786-0 renal"}, "[9]": {"system": "CAKI-1 renal"}, "[10]": {"system": "NCI/ADR-RES ovarian"}}, "note": "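All cell lines were grown in 96-well plates and treated with compound for 48 hours. Abbreviation: GI50, concentration required for 50% inhibition of growth. TGI is the concentration that stops growth completely.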"}
{"molecule": "CC1(N)CCN(c2cnc(-c3cccc(Cl)c3Cl)c(N)n2)CC1", "values": [{"measurement": "GI50", "setting": "[1]", "result": 5.99, "unit": "µM"}, {"measurement": "TGI", "setting": "[1]", "result": "> 100", "unit": "µM"}, {"measurement": "GI50", "setting": "[2]", "result": 16.9, "unit": "µM"}, {"measurement": "TGI", "setting": "[2]", "result": 35.5, "unit": "µM"}, {"measurement": "GI50", "setting": "[3]", "result": 15.6, "unit": "µM"}, {"measurement": "TGI", "setting": "[3]", "result": "> 100", "unit": "µM"}, {"measurement": "GI50", "setting": "[4]", "result": 7.47, "unit": "µM"}, {"measurement": "TGI", "setting": "[4]", "result": "> 100", "unit": "µM"}, {"measurement": "GI50", "setting": "[5]", "result": 14.5, "unit": "µM"}, {"measurement": "TGI", "setting": "[5]", "result": 29, "unit": "µM"}, {"measurement": "GI50", "setting": "[6]", "result": 2.58, "unit": "µM"}, {"measurement": "TGI", "setting": "[6]", "result": "> 100", "unit": "µM"}, {"measurement": "GI50", "setting": "[7]", "result": 56.5, "unit": "µM"}, {"measurement": "TGI", "setting": "[7]", "result": "> 100", "unit": "µM"}, {"measurement": "GI50", "setting": "[8]", "result": 8.36, "unit": "µM"}, {"measurement": "TGI", "setting": "[8]", "result": 22, "unit": "µM"}, {"measurement": "GI50", "setting": "[9]", "result": 14.8, "unit": "µM"}, {"measurement": "TGI", "setting": "[9]", "result": "> 100", "unit": "µM"}, {"measurement": "GI50", "setting": "[10]", "result": 17, "unit": "µM"}, {"measurement": "TGI", "setting": "[10]", "result": "> 100", "unit": "µM"}]}
{"molecule": "CCOC(=O)C#Cc1c(C(=O)OCC)nnn1Cc1ccc([N+](=O)[O-])cc1", "values": [{"measurement": "GI50", "setting": "[1]", "result": 8.2, "unit": "µM"}, {"measurement": "TGI", "setting": "[1]", "result": 26.9, "unit": "µM"}, {"measurement": "GI50", "setting": "[2]", "result": 1.97, "unit": "µM"}, {"measurement": "TGI", "setting": "[2]", "result": 3.79, "unit": "µM"}, {"measurement": "GI50", "setting": "[3]", "result": 3.33, "unit": "µM"}, {"measurement": "TGI", "setting": "[3]", "result": 12.1, "unit": "µM"}, {"measurement": "GI50", "setting": "[4]", "result": 2.54, "unit": "µM"}, {"measurement": "TGI", "setting": "[4]", "result": 7.14, "unit": "µM"}, {"measurement": "GI50", "setting": "[5]", "result": 2.02, "unit": "µM"}, {"measurement": "TGI", "setting": "[5]", "result": 4.3, "unit": "µM"}, {"measurement": "GI50", "setting": "[6]", "result": 16.4, "unit": "µM"}, {"measurement": "TGI", "setting": "[6]", "result": 32.9, "unit": "µM"}, {"measurement": "GI50", "setting": "[7]", "result": 3.88, "unit": "µM"}, {"measurement": "TGI", "setting": "[7]", "result": 14.2, "unit": "µM"}, {"measurement": "GI50", "setting": "[8]", "result": 3.29, "unit": "µM"}, {"measurement": "TGI", "setting": "[8]", "result": 10.8, "unit": "µM"}, {"measurement": "GI50", "setting": "[9]", "result": 1.76, "unit": "µM"}, {"measurement": "TGI", "setting": "[9]", "result": 3.3, "unit": "µM"}, {"measurement": "GI50", "setting": "[10]", "result": 5.5, "unit": "µM"}, {"measurement": "TGI", "setting": "[10]", "result": 21.1, "unit": "µM"}]}
{"molecule": "Oc1c(Cl)cc(Cl)cc1C(c1cc(Cl)cc(Cl)c1O)C(Cl)(Cl)Cl", "values": [{"measurement": "GI50", "setting": "[1]", "result": 1.45, "unit": "µM"}, {"measurement": "TGI", "setting": "[1]", "result": 5.15, "unit": "µM"}, {"measurement": "GI50", "setting": "[2]", "result": 1.89, "unit": "µM"}, {"measurement": "TGI", "setting": "[2]", "result": 4.76, "unit": "µM"}, {"measurement": "GI50", "setting": "[3]", "result": 1.78, "unit": "µM"}, {"measurement": "TGI", "setting": "[3]", "result": 13.7, "unit": "µM"}, {"measurement": "GI50", "setting": "[4]", "result": 3.21, "unit": "µM"}, {"measurement": "TGI", "setting": "[4]", "result": 19, "unit": "µM"}, {"measurement": "GI50", "setting": "[5]", "result": 1.32, "unit": "µM"}, {"measurement": "TGI", "setting": "[5]", "result": 3.67, "unit": "µM"}, {"measurement": "GI50", "setting": "[6]", "result": 1.61, "unit": "µM"}, {"measurement": "TGI", "setting": "[6]", "result": 4.51, "unit": "µM"}, {"measurement": "GI50", "setting": "[7]", "result": 4.12, "unit": "µM"}, {"measurement": "TGI", "setting": "[7]", "result": 15.7, "unit": "µM"}, {"measurement": "GI50", "setting": "[8]", "result": 2.4, "unit": "µM"}, {"measurement": "TGI", "setting": "[8]", "result": 7.45, "unit": "µM"}, {"measurement": "GI50", "setting": "[9]", "result": 0.472, "unit": "µM"}, {"measurement": "TGI", "setting": "[9]", "result": 2.06, "unit": "µM"}, {"measurement": "GI50", "setting": "[10]", "result": 1.99, "unit": "µM"}, {"measurement": "TGI", "setting": "[10]", "result": 7.25, "unit": "µM"}]}
{"molecule": "NS(=O)(=O)NCCNc1nonc1C(=Nc1ccc(F)c(Br)c1)NO", "values": [{"measurement": "GI50", "setting": "[1]", "result": 28.9, "unit": "µM"}, {"measurement": "TGI", "setting": "[1]", "result": "> 100", "unit": "µM"}, {"measurement": "GI50", "setting": "[2]", "result": 47.6, "unit": "µM"}, {"measurement": "TGI", "setting": "[2]", "result": "> 100", "unit": "µM"}, {"measurement": "GI50", "setting": "[3]", "result": 41.3, "unit": "µM"}, {"measurement": "TGI", "setting": "[3]", "result": "> 100", "unit": "µM"}, {"measurement": "GI50", "setting": "[4]", "result": 32.8, "unit": "µM"}, {"measurement": "TGI", "setting": "[4]", "result": "> 100", "unit": "µM"}, {"measurement": "GI50", "setting": "[5]", "result": 42.6, "unit": "µM"}, {"measurement": "TGI", "setting": "[5]", "result": "> 100", "unit": "µM"}, {"measurement": "GI50", "setting": "[6]", "result": 34.8, "unit": "µM"}, {"measurement": "TGI", "setting": "[6]", "result": "> 100", "unit": "µM"}, {"measurement": "GI50", "setting": "[7]", "result": 51.2, "unit": "µM"}, {"measurement": "TGI", "setting": "[7]", "result": "> 100", "unit": "µM"}, {"measurement": "GI50", "setting": "[8]", "result": 48.8, "unit": "µM"}, {"measurement": "TGI", "setting": "[8]", "result": "> 100", "unit": "µM"}, {"measurement": "GI50", "setting": "[9]", "result": 33.8, "unit": "µM"}, {"measurement": "TGI", "setting": "[9]", "result": "> 100", "unit": "µM"}, {"measurement": "GI50", "setting": "[10]", "result": "> 100", "unit": "µM"}, {"measurement": "TGI", "setting": "[10]", "result": "> 100", "unit": "µM"}]}
{"molecule": "Oc1ccc(C2c3ccccc3Oc3ccccc32)c2cccnc12", "values": [{"measurement": "GI50", "setting": "[1]", "result": 2.26, "unit": "µM"}, {"measurement": "TGI", "setting": "[1]", "result": "> 100", "unit": "µM"}, {"measurement": "GI50", "setting": "[2]", "result": 3.18, "unit": "µM"}, {"measurement": "TGI", "setting": "[2]", "result": "> 100", "unit": "µM"}, {"measurement": "GI50", "setting": "[3]", "result": 1.65, "unit": "µM"}, {"measurement": "TGI", "setting": "[3]", "result": "> 100", "unit": "µM"}, {"measurement": "GI50", "setting": "[4]", "result": 2.08, "unit": "µM"}, {"measurement": "TGI", "setting": "[4]", "result": "> 100", "unit": "µM"}, {"measurement": "GI50", "setting": "[5]", "result": 0.852, "unit": "µM"}, {"measurement": "TGI", "setting": "[5]", "result": "> 100", "unit": "µM"}, {"measurement": "GI50", "setting": "[6]", "result": 2, "unit": "µM"}, {"measurement": "TGI", "setting": "[6]", "result": "> 100", "unit": "µM"}, {"measurement": "GI50", "setting": "[7]", "result": 1.94, "unit": "µM"}, {"measurement": "TGI", "setting": "[7]", "result": "> 100", "unit": "µM"}, {"measurement": "GI50", "setting": "[8]", "result": 1.64, "unit": "µM"}, {"measurement": "TGI", "setting": "[8]", "result": 4.85, "unit": "µM"}, {"measurement": "GI50", "setting": "[9]", "result": 0.568, "unit": "µM"}, {"measurement": "TGI", "setting": "[9]", "result": "> 100", "unit": "µM"}, {"measurement": "GI50", "setting": "[10]", "result": 1.59, "unit": "µM"}, {"measurement": "TGI", "setting": "[10]", "result": "> 100", "unit": "µM"}]}
{"molecule": "CC(=O)O[C@H]1[C@@H]2OC(=O)C(CSc3ccccc3)[C@@H]2C[C@H]2O[C@]2(C)CC/C=C(\\C)CCC[C@@H]1C", "note": "(stereo not given in full)", "values": [{"measurement": "GI50", "setting": "[1]", "result": 3.51, "unit": "µM"}, {"measurement": "TGI", "setting": "[1]", "result": 22.2, "unit": "µM"}, {"measurement": "GI50", "setting": "[2]", "result": 1.75, "unit": "µM"}, {"measurement": "TGI", "setting": "[2]", "result": 3.9, "unit": "µM"}, {"measurement": "GI50", "setting": "[3]", "result": 3.45, "unit": "µM"}, {"measurement": "TGI", "setting": "[3]", "result": 14.8, "unit": "µM"}, {"measurement": "GI50", "setting": "[4]", "result": 2.98, "unit": "µM"}, {"measurement": "TGI", "setting": "[4]", "result": 10.9, "unit": "µM"}, {"measurement": "GI50", "setting": "[5]", "result": 1.46, "unit": "µM"}, {"measurement": "TGI", "setting": "[5]", "result": 2.91, "unit": "µM"}, {"measurement": "GI50", "setting": "[6]", "result": 3.27, "unit": "µM"}, {"measurement": "TGI", "setting": "[6]", "result": 12.9, "unit": "µM"}, {"measurement": "GI50", "setting": "[7]", "result": 2.34, "unit": "µM"}, {"measurement": "TGI", "setting": "[7]", "result": 5.6, "unit": "µM"}, {"measurement": "GI50", "setting": "[8]", "result": 2.81, "unit": "µM"}, {"measurement": "TGI", "setting": "[8]", "result": 8.29, "unit": "µM"}, {"measurement": "GI50", "setting": "[9]", "result": 1.69, "unit": "µM"}, {"measurement": "TGI", "setting": "[9]", "result": 6.34, "unit": "µM"}, {"measurement": "GI50", "setting": "[10]", "result": 2.99, "unit": "µM"}, {"measurement": "TGI", "setting": "[10]", "result": 32, "unit": "µM"}]}
